Test results: article PMC6155272, “Chroman-4-One Derivatives Targeting Pteridine Reductase 1 and Showing Anti-Parasitic Activity” (Molecules : A Journal of Synthetic Chemistry and Natural …, 2017)

Columns and labels:
[1] = test system: 786-O (renal carcinoma) cell line; experiment: Mitochondrial toxicity (MitoTracker Red CMXRos uptake, high content imaging); format: cell-based; design: key to % Mitochondrial toxicity: NI: no inhibition; conditions: for % Mitochondrial toxicity: 10 µM, 100% = mitotoxic, 0% = not mitotoxic; for IC50: Homo sapiens, 786-0, read-out: IC50 Mitochondria
Protocol: This made use of MitoTracker® Red chloromethyl-X-rosamine (CMXRos) uptake and High Content Imaging to monitor compound mediated mitochondrial toxicity in the 786-O (renal carcinoma) cell line. Cells were maintained using Roswell Park Memorial Institute-1640 (RPMI-1640) medium from Capricorn Scientific GmbH, Ebsdorfergrund, Germany containing 2 mM glutamine, FBS (10% v/v), streptomycin (100 μg/mL) and penicillin G (100 U/mL).

CYP2C19 = biological target: T1, CYP2C19 (Homo sapiens, UniProt P33261); experiment: Cytochrome P450 2C19 assay (P450-Glo); format: in vitro ADME; conditions: for inhibition at 10 µM: human
T1 construct: purchased Promega; host or cells: baculovirus-infected insect cells
From the text: (§1) These assays made use of the PromegaP450-Glo™ (Madison, AL, USA) assay platform. Each CYP450 assay includes microsomal preparations of cytochromes from baculovirus-infected insect cells.

hERG channel = biological target: T2, hERG channel (Homo sapiens, UniProt Q12809); experiment: hERG fluorescence polarisation assay (Predictor); format: binding; conditions: for inhibition at 10 µM: human
T2 construct: purchased Invitrogen
From the text: The assay made use of Invitrogen’s Predictor™ hERG Fluorescence Polarisation Assay. This uses a membrane fraction containing hERG channel (Predictor™ hERG Membrane) and a high-affinity red fluorescent hERG channel ligand, or “tracer” (Predictor™ hERG Tracer Red), whose displacement by test compounds can be determined in a homogenous, Fluorescence Polarisation (FP)-based format.

[2] = Cytotoxicity against THP-1 macrophages (MTT); format: cell-based; conditions: human, THP-1-derived macrophages; THP-1 macrophage-like cells; NOAEL = no observed adverse effect level; read-out: CC50 ± SD or NOAEL
Protocol: The effect of compounds 1–3 on THP-1-derived macrophages was assessed by the colorimetric (MTT) assay (3-(4,5-dimethylthiazol-2-yl)-2,5-diphenyl tetrazolium bromide).

CYP2D6 = biological target: T3, CYP2D6 (Homo sapiens, UniProt P10635); experiment: Cytochrome P450 2D6 assay (P450-Glo); format: in vitro ADME; conditions: for inhibition at 10 µM: human
T3 construct: purchased Promega; host or cells: baculovirus-infected insect cells
From the text: as §1

CYP2C9 = biological target: T4, CYP2C9 (Homo sapiens, UniProt P11712); experiment: Cytochrome P450 2C9 assay (P450-Glo); format: in vitro ADME; conditions: for inhibition at 10 µM: human
T4 construct: purchased Promega; host or cells: baculovirus-infected insect cells
From the text: as §1

CYP1A2 = biological target: T5, CYP1A2 (Homo sapiens, UniProt P05177); experiment: Cytochrome P450 1A2 assay (P450-Glo); format: in vitro ADME; conditions: for inhibition at 10 µM: human
T5 construct: purchased Promega; host or cells: baculovirus-infected insect cells
T5 sequence (P05177 1-516): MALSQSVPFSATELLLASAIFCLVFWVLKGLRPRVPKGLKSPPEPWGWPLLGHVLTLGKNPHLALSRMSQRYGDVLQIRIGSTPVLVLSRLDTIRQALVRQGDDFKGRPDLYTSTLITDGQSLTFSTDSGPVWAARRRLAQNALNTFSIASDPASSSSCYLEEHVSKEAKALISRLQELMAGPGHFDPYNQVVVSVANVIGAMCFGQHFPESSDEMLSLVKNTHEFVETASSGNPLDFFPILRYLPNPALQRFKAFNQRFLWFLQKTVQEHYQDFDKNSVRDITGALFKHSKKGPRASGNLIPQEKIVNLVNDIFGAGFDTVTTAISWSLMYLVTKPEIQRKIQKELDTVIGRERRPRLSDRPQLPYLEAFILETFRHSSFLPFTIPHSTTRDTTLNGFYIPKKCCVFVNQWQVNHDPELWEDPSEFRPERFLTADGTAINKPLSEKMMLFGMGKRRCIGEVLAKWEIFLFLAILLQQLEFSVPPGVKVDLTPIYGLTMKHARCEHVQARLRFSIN
From the text: as §1

T1 sequence (P33261 whole entry): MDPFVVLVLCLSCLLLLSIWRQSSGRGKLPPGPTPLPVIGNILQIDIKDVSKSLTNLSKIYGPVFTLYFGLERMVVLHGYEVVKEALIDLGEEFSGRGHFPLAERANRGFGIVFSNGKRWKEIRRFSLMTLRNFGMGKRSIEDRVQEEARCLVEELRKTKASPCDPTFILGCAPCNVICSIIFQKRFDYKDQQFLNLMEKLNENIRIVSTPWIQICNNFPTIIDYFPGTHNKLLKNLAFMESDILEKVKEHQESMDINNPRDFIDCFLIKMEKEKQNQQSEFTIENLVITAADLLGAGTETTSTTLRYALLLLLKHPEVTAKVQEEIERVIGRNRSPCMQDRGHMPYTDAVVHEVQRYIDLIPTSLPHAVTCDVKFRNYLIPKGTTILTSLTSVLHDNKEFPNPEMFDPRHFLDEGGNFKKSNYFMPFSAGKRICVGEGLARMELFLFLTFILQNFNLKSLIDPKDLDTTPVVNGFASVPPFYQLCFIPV
T4 sequence (P11712 whole entry): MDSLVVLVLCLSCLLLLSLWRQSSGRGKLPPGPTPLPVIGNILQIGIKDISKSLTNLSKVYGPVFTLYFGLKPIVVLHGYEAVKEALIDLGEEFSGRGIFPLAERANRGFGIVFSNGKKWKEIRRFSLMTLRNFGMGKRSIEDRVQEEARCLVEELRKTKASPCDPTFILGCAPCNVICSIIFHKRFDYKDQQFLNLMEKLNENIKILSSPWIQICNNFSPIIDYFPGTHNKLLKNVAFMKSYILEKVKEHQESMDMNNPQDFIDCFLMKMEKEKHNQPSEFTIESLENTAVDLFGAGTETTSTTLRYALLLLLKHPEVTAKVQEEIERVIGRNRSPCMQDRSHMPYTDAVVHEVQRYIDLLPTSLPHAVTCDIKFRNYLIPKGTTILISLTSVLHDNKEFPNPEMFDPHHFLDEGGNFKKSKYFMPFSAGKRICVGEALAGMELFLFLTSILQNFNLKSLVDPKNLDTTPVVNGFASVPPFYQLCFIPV
T3 sequence (P10635 whole entry): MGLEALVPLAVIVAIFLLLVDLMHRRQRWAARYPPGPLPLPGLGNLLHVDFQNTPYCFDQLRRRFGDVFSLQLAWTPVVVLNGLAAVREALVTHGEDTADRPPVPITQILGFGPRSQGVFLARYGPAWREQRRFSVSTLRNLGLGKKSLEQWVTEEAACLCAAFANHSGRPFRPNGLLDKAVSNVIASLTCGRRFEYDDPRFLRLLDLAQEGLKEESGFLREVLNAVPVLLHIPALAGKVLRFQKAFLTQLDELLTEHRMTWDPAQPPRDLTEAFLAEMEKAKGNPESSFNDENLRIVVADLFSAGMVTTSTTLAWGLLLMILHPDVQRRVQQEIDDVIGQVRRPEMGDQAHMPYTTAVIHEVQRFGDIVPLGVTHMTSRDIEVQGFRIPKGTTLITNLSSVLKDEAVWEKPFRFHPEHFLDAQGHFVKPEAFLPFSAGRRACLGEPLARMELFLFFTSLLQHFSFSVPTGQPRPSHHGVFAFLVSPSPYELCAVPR
T2 sequence (Q12809 whole entry): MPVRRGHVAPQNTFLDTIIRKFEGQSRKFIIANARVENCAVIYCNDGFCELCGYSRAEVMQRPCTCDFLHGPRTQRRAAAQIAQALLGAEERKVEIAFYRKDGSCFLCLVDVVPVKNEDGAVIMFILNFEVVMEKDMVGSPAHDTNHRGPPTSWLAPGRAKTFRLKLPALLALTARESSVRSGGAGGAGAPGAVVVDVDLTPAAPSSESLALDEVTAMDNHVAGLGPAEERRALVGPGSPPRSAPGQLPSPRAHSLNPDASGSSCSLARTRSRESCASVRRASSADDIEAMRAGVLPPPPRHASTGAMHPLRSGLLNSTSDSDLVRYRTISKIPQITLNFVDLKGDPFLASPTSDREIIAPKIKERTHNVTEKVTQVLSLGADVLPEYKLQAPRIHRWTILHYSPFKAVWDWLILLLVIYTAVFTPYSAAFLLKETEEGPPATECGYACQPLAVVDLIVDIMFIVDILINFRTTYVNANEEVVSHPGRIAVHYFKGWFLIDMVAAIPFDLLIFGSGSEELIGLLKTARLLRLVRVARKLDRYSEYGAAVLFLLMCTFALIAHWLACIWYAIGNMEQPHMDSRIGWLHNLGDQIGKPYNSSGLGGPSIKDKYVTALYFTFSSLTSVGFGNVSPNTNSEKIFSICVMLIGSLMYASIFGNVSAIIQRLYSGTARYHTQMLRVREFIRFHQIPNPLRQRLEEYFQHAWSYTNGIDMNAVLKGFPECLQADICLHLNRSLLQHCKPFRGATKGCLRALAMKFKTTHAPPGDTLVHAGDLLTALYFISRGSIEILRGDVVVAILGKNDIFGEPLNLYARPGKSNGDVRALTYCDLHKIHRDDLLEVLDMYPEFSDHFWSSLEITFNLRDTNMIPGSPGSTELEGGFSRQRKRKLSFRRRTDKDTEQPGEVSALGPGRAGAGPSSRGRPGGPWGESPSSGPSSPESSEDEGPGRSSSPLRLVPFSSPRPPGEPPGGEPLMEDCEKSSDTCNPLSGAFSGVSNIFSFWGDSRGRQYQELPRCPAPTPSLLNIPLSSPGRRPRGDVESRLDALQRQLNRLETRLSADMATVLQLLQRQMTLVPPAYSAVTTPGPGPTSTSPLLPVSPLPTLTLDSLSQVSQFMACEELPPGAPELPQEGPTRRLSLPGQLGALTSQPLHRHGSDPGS

| SMILES | % Mitochondrial toxicity [1] | IC50 [1] [µM] | IC50 (CYP2C19) [µM] | inhibition at 10 µM (CYP2C19) [%] | IC50 (hERG channel) [µM] | inhibition at 10 µM (hERG channel) [%] | CC50 [2] [µM] | IC50 (CYP2D6) [µM] | inhibition at 10 µM (CYP2D6) [%] | IC50 (CYP2C9) [µM] | inhibition at 10 µM (CYP2C9) [%] | IC50 (CYP1A2) [µM] | inhibition at 10 µM (CYP1A2) [%] |
| --- | --- | --- | --- | --- | --- | --- | --- | --- | --- | --- | --- | --- | --- |
| O=C1CC(c2cccc(O)c2)Oc2ccc(O)cc21 (stereo not drawn) [Compound 1] | 6% | > 100 | 1 | 77.2 | > 100 | 7 | > 100 | 85 | < 15 | 72 | < 15 | 29 | 3 |
| O=C1CC(c2ccc(O)c(O)c2)Oc2ccc(O)cc21 (stereo not drawn) [Compound 3] | NI | > 100 | 5 | 2.68 | 64 | 20 | > 100 | > 100 | < 15 | 4 | < 15 | 62 | < 15 |
| O=C1CC(c2ccc(O)cc2)Oc2ccc(O)cc21 (stereo not drawn) [Compound 2] | NI | > 100 | 4 | 44.5 | > 100 | 14 | > 100 | 94 | < 15 | > 100 | < 15 | 59 | < 15 |
